Legend:
Type in all cases: in vivo
[1] = tested on: Heliothis virescens (Tobacco Budworm); experiment: Heliothis virescens egg test on artificial diet; settings: for % Control at 12.5 ppm, Heliothis virescens / % Control at 200 ppm, Heliothis virescens: enantiomer comparison, 4 days incubation
Description: Heliothis virescens (Tobacco Budworm): Eggs (0-24 h old) were placed in 24-well microtiter plate on artificial diet and treated with test solutions at an application rate of 200 ppm (concentration in well 18 ppm) by pipetting. After an incubation period of 4 days, samples were checked for egg mortality, larval mortality, and growth regulation. Heliothis virescens (Tobacco Budworm): Eggs (0-24 h old) were placed in 24-well microtiter plate on artificial diet and treated with test solutions at an application rate starting at 200 ppm (concentration in well 18 ppm) by pipetting. After an incubation period of 4 days, samples were checked for egg mortality, larval mortality, and growth regulation.

[2] = tested on: Diabrotica balteata (Corn Root Worm); experiment: Diabrotica balteata L2 larvae test on artificial diet; settings: for Control, Diabrotica balteata (Corn root worm): application rate 12 ppm; for % Control at 12.5 ppm, Diabrotica balteata / % Control at 200 ppm, Diabrotica balteata: enantiomer comparison, 5 days incubation
Description: Diabrotica balteata (Corn Root Worm): A 24-well microtiter plate (MTP) with artificial diet was treated with test solutions at an application rate of 200 ppm (concentration in well […]) by pipetting. After drying, the MTP's were infested with L2 larvae (6-10 per well). After an incubation period of 5 days, samples were checked for larval mortality and growth regulation. Diabrotica balteata (Corn Root Worm): A 24-well microtiter plate (MTP) with artificial diet was treated with test solutions at an application rate of 12.5 ppm (concentration in well […]) by pipetting. After drying, the MTP's were infested with L2 larvae (6-10 per well). After an incubation period of 5 days, samples were checked for larval mortality and growth regulation.

[3] = tested on: Tetranychus urticae (Two-Spotted Spider Mite); experiment: Tetranychus urticae bean leaf disc spray test; settings: for Control, Tetranychus urticae (Two-spotted spider mite): application rate 12 ppm; for % Control at 12.5 ppm, Tetranychus urticae / % Control at 200 ppm, Tetranychus urticae: enantiomer comparison, checked 8 days later
Description: […] After drying, the leaf discs are infested with mite populations of mixed ages. 8 days later, discs are checked for egg mortality, larval mortality, and adult mortality. […] After drying, the leaf discs are infested with mite populations of mixed ages. 8 days later, discs are checked for egg mortality, larval mortality, and adult mortality.

[4] = tested on: Plutella xylostella (Diamond Back Moth); experiment: Plutella xylostella L2 larvae test on artificial diet; settings: enantiomer comparison, 6 days incubation
Description: […] After drying, the MTP's were infested with L2 larvae (7-12 per well). After an incubation period of 6 days, samples were checked for larval mortality and growth regulation. […] After drying, the MTPs were infested with L2 larvae (7-12 per well). After an incubation period of 6 days, samples were checked for larval mortality and growth regulation.

[5] = tested on: Thrips tabaci (Onion Thrips); experiment: Thrips tabaci sunflower leaf disc spray test; settings: enantiomer comparison, 7 days incubation
Description: Thrips tabaci (Onion Thrips): Sunflower leaf discs were placed on agar in a 24-well microtiter plate and sprayed with test solutions at an application rate of 200 ppm. After drying, the leaf discs were infested with a thrip population of mixed ages. After an incubation period of 7 days, samples were checked for mortality. Thrips tabaci (Onion Thrips): Sunflower leaf discs were placed on agar in a 24-well microtiter plate and sprayed with test solutions at an application rate of 50 ppm. After drying, the leaf discs were infested with a thrip population of mixed ages. After an incubation period of 7 days, samples were checked for mortality.

[6] = tested on: Spodoptera littoralis (Egyptian Cotton Leaf Worm); experiment: Spodoptera littoralis (systemic) test via salad grown on treated agar; settings: 5 days after infestation
Description: Spodoptera littoralis (Systemic) (Egyptian Cotton Leaf Worm) Test compounds were applied by pipette into 24 well plates and mixed with agar. Salad seeds were placed on the agar and the multi well plate is closed by another plate which contains also agar. After 7 days the roots have absorbed the compound and the salad has grown into the lid plate. The salad leafs were now cut off into the lid plate. Spodoptera eggs were pipette through a plastic stencil on a humid gel blotting paper and the plate closed with it. The samples are checked for mortality, repellent effect, feeding behavior, and growth regulation 5 days after infestation.

Cc1cc(N2CCC(c3cc(Cl)cc(Cl)c3)(C(F)(F)F)C2)ccc1C(=O)NCc1ccccn1 (centres unmarked) [Compound 1-4 of WO08128711, reference compound]
Control, Heliothis virescens (Tobacco budworm) ([1]; application rate 0.8 ppm): 0% | Control, Heliothis virescens (Tobacco budworm) ([1]; application rate 3 ppm): 50% | Control, Diabrotica balteata (Corn root worm) [2]: 0% | Control, Tetranychus urticae (Two-spotted spider mite) [3]: 0%

Cc1cc(N2CCC(c3cc(Cl)cc(Cl)c3)(C(F)(F)F)C2)ccc1C(=O)NC1CSC1 (centres unmarked) [Compound A4]
Control, Heliothis virescens (Tobacco budworm) ([1]; application rate 3 ppm): 80% | Control, Diabrotica balteata (Corn root worm) [2]: 100% | Control, Tetranychus urticae (Two-spotted spider mite) [3]: 100%

Cc1cc(N2CCC(c3cc(Cl)cc(Cl)c3)(C(F)(F)F)C2)ccc1C(=O)NC1CS(=O)(=O)C1 (centres unmarked) [Compound A5]
Control, Heliothis virescens (Tobacco budworm) ([1]; application rate 3 ppm): 80% | Control, Diabrotica balteata (Corn root worm) [2]: 100% | Control, Tetranychus urticae (Two-spotted spider mite) [3]: 100%

Cc1cc(N2CCC(c3cc(Cl)cc(Cl)c3)(C(F)(F)F)C2)ccc1C(=O)NC1C[S+]([O-])C1 (centres unmarked) [Compound A1]
Control, Heliothis virescens (Tobacco budworm) ([1]; application rate 0.8 ppm): 100% | Control, Diabrotica balteata (Corn root worm) [2]: 80% | Control, Tetranychus urticae (Two-spotted spider mite) [3]: 100%

Cc1cc(N2CCC(c3cc(Cl)cc(Cl)c3)(C(F)(F)F)C2)ccc1C(=O)NC1CS(=O)(=O)C1 (single isomer, unassigned) [Compound A5b]
% Control at 12.5 ppm, Heliothis virescens [1]: 0% | % Control at 200 ppm, Heliothis virescens [1]: 100% | % Control at 12.5 ppm, Plutella xylostella [4]: 0% | % Control at 200 ppm, Plutella xylostella [4]: 100% | % Control at 12.5 ppm, Diabrotica balteata [2]: 0% | % Control at 200 ppm, Diabrotica balteata [2]: 0% | % Control at 200 ppm, Thrips tabaci [5]: 0% | % Control at 12.5 ppm, Tetranychus urticae [3]: 0% | % Control at 200 ppm, Tetranychus urticae [3]: 0% | % Control at 12.5 ppm, Spodoptera littoralis [6]: 0% | % Control at 200 ppm, Spodoptera littoralis [6]: 100%

Cc1cc(N2CCC(c3cc(Cl)cc(Cl)c3)(C(F)(F)F)C2)ccc1C(=O)NC1CS(=O)(=O)C1 (single isomer, unassigned) [Compound A5a]
% Control at 12.5 ppm, Heliothis virescens [1]: 100% | % Control at 200 ppm, Heliothis virescens [1]: 100% | % Control at 12.5 ppm, Plutella xylostella [4]: 100% | % Control at 200 ppm, Plutella xylostella [4]: 100% | % Control at 12.5 ppm, Diabrotica balteata [2]: 100% | % Control at 200 ppm, Diabrotica balteata [2]: 100% | % Control at 200 ppm, Thrips tabaci [5]: 90% | % Control at 12.5 ppm, Tetranychus urticae [3]: 100% | % Control at 200 ppm, Tetranychus urticae [3]: 100% | % Control at 12.5 ppm, Spodoptera littoralis [6]: 100% | % Control at 200 ppm, Spodoptera littoralis [6]: 100%
